Experimental data: ChEMBL document CHEMBL1131784, “The design and synthesis of ALS inhibitors from pharmacophore models” (Bioorg Med Chem Lett, 1999)

Biological target: T1, Acetolactate synthase, chloroplastic (Arabidopsis thaliana, UniProt P17597)
T1 sequence (P17597 whole entry): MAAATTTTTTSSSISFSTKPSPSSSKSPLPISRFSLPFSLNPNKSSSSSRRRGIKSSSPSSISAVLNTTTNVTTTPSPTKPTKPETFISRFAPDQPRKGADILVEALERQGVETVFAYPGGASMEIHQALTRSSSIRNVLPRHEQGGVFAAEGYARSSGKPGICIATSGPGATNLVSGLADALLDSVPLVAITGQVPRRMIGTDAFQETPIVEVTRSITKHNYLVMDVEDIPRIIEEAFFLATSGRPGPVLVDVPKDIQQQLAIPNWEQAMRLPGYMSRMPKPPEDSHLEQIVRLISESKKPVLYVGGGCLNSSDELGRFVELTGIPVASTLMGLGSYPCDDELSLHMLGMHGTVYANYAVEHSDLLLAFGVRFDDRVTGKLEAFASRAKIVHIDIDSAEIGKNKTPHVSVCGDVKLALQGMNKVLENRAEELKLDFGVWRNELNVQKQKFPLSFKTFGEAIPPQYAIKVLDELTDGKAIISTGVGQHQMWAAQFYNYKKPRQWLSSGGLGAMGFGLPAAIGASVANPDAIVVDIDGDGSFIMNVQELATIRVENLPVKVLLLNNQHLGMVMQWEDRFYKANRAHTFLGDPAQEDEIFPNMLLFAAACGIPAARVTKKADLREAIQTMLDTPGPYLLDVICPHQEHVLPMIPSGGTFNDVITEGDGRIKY
Experiment: Inhibitory activity against Acetolactate synthase (ALS) enzyme by using the rape-root growth method
Conditions: not given

Question: How did the IC50 turn out when `O=C(OCn1ccc(=O)[nH]c1=O)c1c(Cl)cc(C(F)(F)F)cc1Cl` was run?
Answer: The IC50 was over 100 p.p.m.

Question: How did the IC50 turn out when `O=C(OCn1ccc(=O)[nH]c1=O)c1ccccc1` was run?
Answer: Its IC50 is 55.36 p.p.m.

Question: How did the IC50 turn out when `COc1cc(Cl)nc(NS(=O)(=O)c2ccc(F)cc2)n1` was run?
Answer: Its IC50 is 0.000111 M l-1.

Question: With `O=C(OCn1ccc(=O)[nH]c1=O)c1ccc(Cl)cc1` as the molecule, how does the IC50 read?
Answer: Its IC50 is 51.29 p.p.m.

Question: `O=C(OCn1ccc(=O)[nH]c1=O)c1ccc(F)cc1` was tested. Which IC50 did it give?
Answer: Its IC50 is 55.86 p.p.m.

Question: `Cc1ccc(NS(=O)(=O)c2ccc(F)cc2)nc1` was tested. Which IC50 did it give?
Answer: Its IC50 is 0.000152 M l-1.

Question: For `Cc1ccnc(NS(=O)(=O)c2ccccc2[N+](=O)[O-])n1`, which IC50 is on record?
Answer: Its IC50 is 0.000287 M l-1.

Question: `COc1ccc(C(=O)OCn2ccc(=O)[nH]c2=O)cc1` was tested. Which IC50 did it give?
Answer: The IC50 was over 100 p.p.m.

Question: `Cc1cccc(C(=O)OCn2ccc(=O)[nH]c2=O)c1` was tested. Which IC50 did it give?
Answer: The IC50 was 16.04 p.p.m.

Question: Which IC50 does the source give for `O=C(OCn1ccc(=O)[nH]c1=O)c1ccc(I)cc1` here?
Answer: Its IC50 is over 100 p.p.m.

Question: `COc1ccccc1C(=O)OCn1ccc(=O)[nH]c1=O` was tested. Which IC50 did it give?
Answer: The IC50 was over 100 p.p.m.

Question: `O=C(OCn1ccc(=O)[nH]c1=O)c1ccc([N+](=O)[O-])cc1` was tested. Which IC50 did it give?
Answer: The IC50 was over 100 p.p.m.

Question: How did the IC50 turn out when `O=C(OCn1ccc(=O)[nH]c1=O)c1ccc(Br)cc1` was run?
Answer: The IC50 was 55.38 p.p.m.

Question: `Cc1cnc(NS(=O)(=O)c2cc(Cl)ccc2Cl)s1` was tested. Which IC50 did it give?
Answer: Its IC50 is over 0.000309 M l-1.

Same assay, conditions: read-out: IC50

Question: Which IC50 does the source give for `O=S(=O)(Nc1nccs1)c1cc(Cl)ccc1Cl` here?
Answer: Its IC50 is 84.7 µM.

Question: How did the IC50 turn out when `Cc1cc(C)nc(NS(=O)(=O)c2cc(Cl)ccc2Cl)n1` was run?
Answer: Its IC50 is 33 µM.

Question: For `Cc1ccnc(NS(=O)(=O)c2ccc(F)cc2)n1`, which IC50 is on record?
Answer: Its IC50 is 38.9 µM.

Question: Which IC50 does the source give for `Cc1ccnc(NS(=O)(=O)c2cc(Cl)ccc2Cl)n1` here?
Answer: The IC50 was 97.2 µM.

Question: How did the IC50 turn out when `Cc1ccnc(NS(=O)(=O)c2ccc(Br)cc2)n1` was run?
Answer: Its IC50 is 58.9 µM.
